{"source": "paper PMC9667588", "about": "“Synthesis and bioactivities evaluation of quinazolin-4(3H)-one derivatives as α-glucosidase inhibitors” (BMC Chemistry, 2022)", "note": "Entries after “also recorded” stand apart in the source; their conditions may differ."}
{"biological_target": "T1, α-glucosidase (Saccharomyces cerevisiae, UniProt P53341)", "T1 sequence (P53341 whole entry)": "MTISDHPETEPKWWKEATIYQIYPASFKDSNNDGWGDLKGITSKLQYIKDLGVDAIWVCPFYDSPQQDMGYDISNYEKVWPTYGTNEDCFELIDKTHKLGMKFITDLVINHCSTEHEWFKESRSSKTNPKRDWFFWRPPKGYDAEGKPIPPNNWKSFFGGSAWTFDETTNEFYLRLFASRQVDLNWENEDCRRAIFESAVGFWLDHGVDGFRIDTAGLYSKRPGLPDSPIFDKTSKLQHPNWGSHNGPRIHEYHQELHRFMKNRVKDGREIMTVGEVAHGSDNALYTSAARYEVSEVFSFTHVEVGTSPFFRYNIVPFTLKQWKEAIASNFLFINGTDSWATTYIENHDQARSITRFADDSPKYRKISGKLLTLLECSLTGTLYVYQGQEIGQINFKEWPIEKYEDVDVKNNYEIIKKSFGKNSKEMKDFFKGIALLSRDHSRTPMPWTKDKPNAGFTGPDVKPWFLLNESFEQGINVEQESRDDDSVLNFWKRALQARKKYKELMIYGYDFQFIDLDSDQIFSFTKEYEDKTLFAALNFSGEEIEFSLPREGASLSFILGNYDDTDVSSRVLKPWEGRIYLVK", "assay": "Enzyme kinetic studies (Lineweaver–Burk plot, secondary plot)", "assay_type": "biochemical", "conditions": "Km increased, Vmax unchanged", "procedure": "A Lineweaver–Burk plot was generated to identify the type of inhibition and the Michaelis–Menten constant (Km) value was determined from the plot between the reciprocal of the substrate concentration (1/[S]) and reciprocal of enzyme rate (1/V) over various inhibitor concentrations. The experimental inhibitor constant (Ki) value was constructed by secondary plots of the inhibitor concentration [I] versus Km."}
{"molecule": "COc1cc(-c2nc3ccccc3c(=O)[nH]2)ccc1OCC(=O)Nc1ccccc1F", "note": "[Compound 7b, N-(2-fluorophenyl)-2-(2-methoxy-4-(4-oxo-3,4-dihydroquinazolin-2-yl)phenoxy)acetamide]", "type of inhibition": "competitive type; also recorded: competitive inhibition; also recorded: competitive inhibitor"}
{"system": "breast cancer cell line MCF-7", "assay": "not given", "set-up": "method as in PMID 30366316", "conditions": "cited from earlier work"}
{"molecule": "O=c1c2ccccc2nc(SCc2cn(Cc3ccc(Br)cc3)nn2)n1CCc1ccccc1", "note": "[B]", "toxicity against breast cancer cell line MCF-7": "no toxicity"}
{"system": "α-amylase", "assay": "not given", "set-up": "method as in doi:10.1016/j.molstruc.2022.133650", "conditions": "at 108 μM; cited from earlier work", "units": {"% inhibition against α-amylase": "%"}}
{"molecule": "COc1cc(-c2nc3ccccc3[nH]2)ccc1OCC(=O)Nc1ccc(F)cc1", "note": "[F]", "% inhibition against α-amylase": "45.0 ± 0.8"}
{"biological_target": "T1, α-glucosidase", "assay": "α-glucosidase inhibition assay", "assay_type": "biochemical", "conditions": "not given"}
{"molecule": "COc1ccc(NC(=O)COc2ccc(-c3nc4ccccc4c(=O)[nH]3)cc2OC)cc1", "note": "[Compound 7l, 2-(2-methoxy-4-(4-oxo-3,4-dihydroquinazolin-2-yl)phenoxy)-N-(4-methoxyphenyl)acetamide]", "activity against α-glucosidase under the tested concentration": "did not show any activity"}
{"molecule": "COc1cc(-c2nc3ccccc3c(=O)[nH]2)ccc1OCC(=O)Nc1ccc(O)cc1", "note": "[Compound 7m, N-(4-hydroxyphenyl)-2-(2-methoxy-4-(4-oxo-3,4-dihydroquinazolin-2-yl)phenoxy)acetamide]", "activity against α-glucosidase under the tested concentration": "did not show any activity"}
{"molecule": "COc1cc(-c2nc3ccccc3c(=O)[nH]2)ccc1OCC(=O)Nc1ccc([N+](=O)[O-])cc1", "note": "[Compound 7n, 2-(2-methoxy-4-(4-oxo-3,4-dihydroquinazolin-2-yl)phenoxy)-N-(4-nitrophenyl)acetamide]", "activity against α-glucosidase under the tested concentration": "did not show any activity"}
{"biological_target": "T1, α-glucosidase", "assay": "not given", "conditions": "cited from earlier work"}
{"molecule": "O=C(Cn1cc(COc2ccc(-c3nc4ccccc4c(=O)[nH]3)cc2)nn1)Nc1ccccc1", "note": "[C]", "type of inhibition": "competitive"}
{"system": "not given", "assay": "not given", "conditions": "not given", "units": {"melting point": "°C"}}
{"molecule": "COc1cc(-c2nc3ccccc3c(=O)[nH]2)ccc1OCC(=O)Nc1ccccc1", "note": "[Compound 7a, 2-(2-methoxy-4-(4-oxo-3,4-dihydroquinazolin-2-yl)phenoxy)-N-phenylacetamide]", "melting point": "192 to 194"}
{"molecule": "COc1cc(-c2nc3ccccc3c(=O)[nH]2)ccc1OCC(=O)Nc1ccccc1F", "note": "[Compound 7b, N-(2-fluorophenyl)-2-(2-methoxy-4-(4-oxo-3,4-dihydroquinazolin-2-yl)phenoxy)acetamide]", "melting point": "222 to 225"}
{"molecule": "COc1cc(-c2nc3ccccc3c(=O)[nH]2)ccc1OCC(=O)Nc1ccc(F)cc1", "note": "[Compound 7c, N-(4-fluorophenyl)-2-(2-methoxy-4-(4-oxo-3,4-dihydroquinazolin-2-yl)phenoxy)acetamide]", "melting point": "216 to 218"}
{"molecule": "COc1cc(-c2nc3ccccc3c(=O)[nH]2)ccc1OCC(=O)Nc1ccccc1Cl", "note": "[Compound 7d, N-(2-chlorophenyl)-2-(2-methoxy-4-(4-oxo-3,4-dihydroquinazolin-2-yl)phenoxy)acetamide]", "melting point": "207 to 209"}
{"molecule": "COc1cc(-c2nc3ccccc3c(=O)[nH]2)ccc1OCC(=O)Nc1cccc(Cl)c1", "note": "[Compound 7e, N-(3-chlorophenyl)-2-(2-methoxy-4-(4-oxo-3,4-dihydroquinazolin-2-yl)phenoxy)acetamide]", "melting point": "203 to 205"}
{"molecule": "COc1cc(-c2nc3ccccc3c(=O)[nH]2)ccc1OCC(=O)Nc1ccc(Cl)cc1", "note": "[Compound 7f, N-(4-chlorophenyl)-2-(2-methoxy-4-(4-oxo-3,4-dihydroquinazolin-2-yl)phenoxy)acetamide]", "melting point": "211 to 213"}
{"molecule": "COc1cc(-c2nc3ccccc3c(=O)[nH]2)ccc1OCC(=O)Nc1ccc(Br)cc1", "note": "[Compound 7g, N-(4-bromophenyl)-2-(2-methoxy-4-(4-oxo-3,4-dihydroquinazolin-2-yl)phenoxy)acetamide]", "melting point": "203 to 205"}
{"molecule": "COc1cc(-c2nc3ccccc3c(=O)[nH]2)ccc1OCC(=O)Nc1ccccc1C", "note": "[Compound 7h, 2-(2-methoxy-4-(4-oxo-3,4-dihydroquinazolin-2-yl)phenoxy)-N-(o-tolyl)acetamide]", "melting point": "196 to 198"}
{"molecule": "COc1cc(-c2nc3ccccc3c(=O)[nH]2)ccc1OCC(=O)Nc1ccc(C)cc1", "note": "[Compound 7i, 2-(2-methoxy-4-(4-oxo-3,4-dihydroquinazolin-2-yl)phenoxy)-N-(p-tolyl)acetamide]", "melting point": "199 to 201"}
{"molecule": "COc1cc(-c2nc3ccccc3c(=O)[nH]2)ccc1OCC(=O)Nc1c(C)cccc1C", "note": "[Compound 7j, N-(2,6-dimethylphenyl)-2-(2-methoxy-4-(4-oxo-3,4-dihydroquinazolin-2-yl)phenoxy)acetamide]", "melting point": "215 to 217"}
{"molecule": "CCc1ccc(NC(=O)COc2ccc(-c3nc4ccccc4c(=O)[nH]3)cc2OC)cc1", "note": "[Compound 7k, N-(4-ethylphenyl)-2-(2-methoxy-4-(4-oxo-3,4-dihydroquinazolin-2-yl)phenoxy)acetamide]", "melting point": "195 to 197"}
{"molecule": "COc1ccc(NC(=O)COc2ccc(-c3nc4ccccc4c(=O)[nH]3)cc2OC)cc1", "note": "[Compound 7l, 2-(2-methoxy-4-(4-oxo-3,4-dihydroquinazolin-2-yl)phenoxy)-N-(4-methoxyphenyl)acetamide]", "melting point": "205 to 207"}
{"molecule": "COc1cc(-c2nc3ccccc3c(=O)[nH]2)ccc1OCC(=O)Nc1ccc2ccccc2c1", "note": "[Compound 7o, 2-(2-methoxy-4-(4-oxo-3,4-dihydroquinazolin-2-yl)phenoxy)-N-(naphthalen-2-yl)acetamide]", "melting point": "217 to 219"}
{"molecule": "COc1cc(-c2nc3ccccc3c(=O)[nH]2)ccc1OCC(=O)NCc1ccc(C)cc1", "note": "[Compound 7p, 2-(2-methoxy-4-(4-oxo-3,4-dihydroquinazolin-2-yl)phenoxy)-N-(4-methylbenzyl)acetamide]", "melting point": "191 to 193"}
{"molecule": "COc1cc(-c2nc3ccccc3c(=O)[nH]2)ccc1OCC(=O)NCc1ccc(F)cc1", "note": "[Compound 7q, N-(4-fluorobenzyl)-2-(2-methoxy-4-(4-oxo-3,4-dihydroquinazolin-2-yl)phenoxy)acetamide]", "melting point": "224 to 226"}
{"molecule": "COc1cc(-c2nc3ccccc3c(=O)[nH]2)ccc1OCC(=O)NCc1ccccc1", "note": "[Compound 7r, N-benzyl-2-(2-methoxy-4-(4-oxo-3,4-dihydroquinazolin-2-yl)phenoxy)acetamide]", "melting point": "194 to 196"}
